Values after ≈ are worked out from the molar mass of the structure shown.
Tests used:
[1] = system: α-tubulin forms (Tyr/Glu-Tub, Acet-Tub) in rat hippocampus; assay: Microtubule dynamics in rat hippocampus after single administration; assay type: in vivo; conditions: 10 mg/kg subcutaneously, 3 h following injection
Text: Mean±SEM, n=6 per group. **p<0.01, *[…] vs sesame oil.
The effects produced by neurosteroids were compared with those produced by acute administration of the antidepressant drug fluoxetine (selective serotonin reuptake inhibitor; SSRI).

[2] = In vivo toxicity, daily injection for one month; parameters: species or system rat; conditions: rats, daily injection for one month of 48 mg/kg
[3] = Neurosteroids and 3-methoxy-PREG levels in plasma and hippocampus; conditions: rat
GFAP = GFAP immunostaining after Lateral Fluid Percussion (LFP); assay type: in vivo, rat; conditions: first injection 2 hours post-trauma, day 35, no statistical analysis
Experimental: FIG. 24: Quantification of GFAP immunostaining in LFP-injured animals. (A) GFAP immunostaining in injured cortex of LFP-injured animals injected with vehicle (sesame oil), or 3-methoxy-PREG (MAP4343) at 10 mg/kg or 20 mg/kg, with first injection at 2 hours post-trauma. (B) GFAP immunostaining in injured and uninjured thalamus of LFP-injured animals injected with vehicle (sesame oil), or 3-methoxy-PREG (MAP4343) at 10 mg/kg or 20 mg/kg, with first injection at 2 hours post-trauma. No statistical analysis has been performed.
After anesthesia induction, the animal was placed on a stereotaxic frame. […]
Trauma was induced by a fluid percussion device (Custom Design and Manufacturing, United Kingdom) (Besson et al., 2003): it is a cylindrical tank (60 cm long), with a piston on one side, over which a hammer exercises a constraint, and a male Luer-Lock on the other side. […] The amplitude of each shock wave was measured via a pressure transducer connected to the terminal portion of the device. The pressure signal was recorded on an oscilloscope. […]
After mounting on Superfrost slides, frozen sections were dried for 90 minutes at room temperature and stored at −80° C. until use. […] Immunostaining was quantitatively assessed by optical density measurements directly from the section image (Image J). […]

PC12 cells = assay: Neuritic growth / sprouting in PC12 cells with NGF; assay type: cell-based, rat; conditions: increasing concentrations, 2, 5 and 8 days of culture (FIG. 3)
Experimental: Each molecule was tested in three culture wells. Measurements were taken for 200 cells per well using Scion Image software.
Neurite (neurite) length was measured for 200 cells per well after 2, 5, and 8 days of culture.
Stimulation of neuritic sprouting is conducted on PC12 cells differentiated in the presence of NGF (10 ng/ml) and the steroid being tested (30 μM) for 3 days. For each condition, the average length of the longest 200 neurites in each cell is measured simultaneously for 3 cultures.

ERβ = ERβ (Homo sapiens, UniProt Q92731); assay: Radioligand binding assay, ERβ; conditions: MAP4343 10 μM; 0.5 nM [^3H] Estradiol; Human recombinant Sf9 cells
Experimental: (§1) Binding affinity of 3-methoxy-PREG (MAP4343) for receptors of steroid hormones was evaluated using radioligand binding assays.

Solubility limit = assay type: physicochemical; conditions: read-out: solubility limits
spinophilin = assay: Western blot of spinophilin in cortex and hippocampus after CCI; assay type: in vivo, rat; conditions: 10 mg/kg or 20 mg/kg, first injection 2 h post-trauma, day 35, injured cortex and hippocampus and contralaterally
Experimental: FIG. 21: Spinophilin expression, 35 days after TBI, in the left-uninjured and right-injured hemispheres (A: cortex and B: hippocampus) of CCI-injured animals, receiving either vehicle (D0) or MAP4343 (D1: 10 mg/kg and D2: 20 mg/kg), 2 h after injury.
(§2) Samples were analyzed by Western-blot at day 35 post-trauma (D35) to evaluate the effects of MAP4343 on: MAP2 (the target of MAP4343 and a modulator of microtubule function), the post-synaptic markers PSD95 and spinophilin, the pre-synaptic marker synaptophysin, and the axonal growth/integrity marker GAP43.
(§3) Western blot was performed on cortex and hippocampus of TBI-injured animals receiving the first injection of MAP4343 (at 10 mg/kg or 20 mg/kg) or vehicle (sesame oil) 2 h after injury.
(§4) The expression level of various neuronal brain markers of plasticity was measured at day 35 post-trauma by western-blots in the cortex and hippocampus of left uninjured and right injured cerebral hemispheres of CCI traumatized animals receiving either vehicle (sesame oil, CCI-D0) or 3-methoxy-PREG (MAP4343) at 10 mg/kg (CCI-D1) or 20 mg/kg (CCI-D2), with first MAP4343 injection 2 h post-trauma.

synaptophysin = assay: Western blot of synaptophysin in cortex and hippocampus after CCI; assay type: in vivo, rat; conditions: 20 mg/kg, first injection 2 h post-trauma, day 35, injured hippocampus
Experimental: FIG. 22: Synaptophysin expression, 35 days after TBI, in the left-uninjured and right-injured hemispheres (A: cortex and B: hippocampus) of CCI-injured animals, receiving either vehicle (D0) or MAP4343 (D1: 10 mg/kg and D2: 20 mg/kg), 2 h after injury.
as §2, §3, §4

MAP2 = assay: Western blot of MAP2 in cortex and hippocampus after CCI; assay type: in vivo, rat; conditions: 20 mg/kg, first injection 2 h post-trauma, day 35, injured and non-injured cortex and hippocampus
Experimental: FIG. 19: MAP-2 expression, 35 days after TBI, in the left-uninjured and right-injured hemispheres (A: cortex and B: hippocampus) of CCI-injured animals, receiving either vehicle (D0) or MAP4343 (D1: 10 mg/kg and D2: 20 mg/kg), 2 h after injury.
as §2, §3, §4

[4] = molecular target: Glucorticoid Receptor (GR) (Homo sapiens, UniProt P04150); assay: Radioligand binding assay, GR; conditions: MAP4343 10 μM; 3 nM [^3H] Dexamethasone; Human HeLa S3 cells
Experimental: as §1

[5] = 3 h following injection, 10 mg/kg subcutaneously

Glucorticoid Receptor (GR), sequence (P04150 whole entry): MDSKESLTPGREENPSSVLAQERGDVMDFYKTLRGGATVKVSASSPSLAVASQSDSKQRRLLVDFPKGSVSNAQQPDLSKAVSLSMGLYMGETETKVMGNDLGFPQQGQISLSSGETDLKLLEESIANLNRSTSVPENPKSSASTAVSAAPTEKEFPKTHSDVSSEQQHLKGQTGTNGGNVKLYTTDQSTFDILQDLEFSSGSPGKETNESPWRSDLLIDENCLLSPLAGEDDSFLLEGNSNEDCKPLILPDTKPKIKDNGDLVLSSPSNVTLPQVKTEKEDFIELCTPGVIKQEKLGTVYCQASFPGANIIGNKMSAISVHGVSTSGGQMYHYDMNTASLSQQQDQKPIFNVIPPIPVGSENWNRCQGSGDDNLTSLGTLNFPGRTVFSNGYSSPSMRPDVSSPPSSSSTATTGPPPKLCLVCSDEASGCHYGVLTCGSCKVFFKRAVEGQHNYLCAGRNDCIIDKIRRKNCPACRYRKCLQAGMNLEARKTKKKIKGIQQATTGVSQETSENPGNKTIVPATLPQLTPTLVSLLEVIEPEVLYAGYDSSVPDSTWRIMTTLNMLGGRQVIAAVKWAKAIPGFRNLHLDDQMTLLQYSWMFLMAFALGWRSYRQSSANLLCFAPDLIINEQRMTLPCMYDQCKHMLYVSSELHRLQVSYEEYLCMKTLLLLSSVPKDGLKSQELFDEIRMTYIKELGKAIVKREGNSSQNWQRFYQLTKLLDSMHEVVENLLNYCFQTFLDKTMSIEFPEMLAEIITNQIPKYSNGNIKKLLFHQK
ERβ, sequence (Q92731 whole entry): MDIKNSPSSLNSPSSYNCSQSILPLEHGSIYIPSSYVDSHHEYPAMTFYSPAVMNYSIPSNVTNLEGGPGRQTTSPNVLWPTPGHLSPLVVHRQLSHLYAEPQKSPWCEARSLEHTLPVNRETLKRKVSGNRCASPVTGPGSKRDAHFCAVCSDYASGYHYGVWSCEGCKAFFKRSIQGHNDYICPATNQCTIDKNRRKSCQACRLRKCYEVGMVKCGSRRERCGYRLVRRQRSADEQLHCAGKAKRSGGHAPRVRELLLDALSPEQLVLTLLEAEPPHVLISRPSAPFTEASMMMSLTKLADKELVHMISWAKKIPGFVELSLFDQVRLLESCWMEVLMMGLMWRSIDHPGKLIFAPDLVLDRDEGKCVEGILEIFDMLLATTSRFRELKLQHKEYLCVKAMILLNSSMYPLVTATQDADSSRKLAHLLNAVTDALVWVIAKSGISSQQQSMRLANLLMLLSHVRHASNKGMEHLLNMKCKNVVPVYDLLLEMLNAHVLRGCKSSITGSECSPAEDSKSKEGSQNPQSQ

CO[C@H]1CC[C@@]2(C)C(=CC[C@H]3[C@@H]4CC[C@H](C(C)=O)[C@@]4(C)CC[C@@H]32)C1 [3-methoxy-PREG, 3β-methoxy-pregna-5-ene-20-one]
Acet-Tub (marker of stable microtubules) [1]: significantly decreased
Tyr/Glu-Tub ratio (index of microtubule dynamics) [1]: significantly increased
average weight and behavior [2]: affected neither average weight nor behavior
conversion back to PREG or metabolism to PROG ([3]; 3 h after 10 mg/kg subcutaneously): not converted back to PREG or metabolized to PROG
concentration of the drug in hippocampus [3, 5]: 73.3 ± 14.68 ng/g
concentration of the drug in plasma [3, 5]: 21.11 ± 5.04 ng/mL
astrocytes GFAP immunoreactivity in the injured cortex (GFAP; 10 mg/kg or 20 mg/kg): highly decreased
astrocytes immunoreactivity (GFAP) in the injured thalamus (GFAP; especially Dose2 (20 mg/kg)): strongly decreases astrocytes immunoreactivity
increase in the length of neurites formed in the presence of NGF (PC12 cells): ≤ 500%
% inhibition of specific binding (ERβ): < 25%
solubility (Solubility limit): ~50 µM (≈ 16.5 µg/mL)
spinophilin expression (spinophilin): increase in spinophilin expression
Synaptophysin expression (synaptophysin): increase in Synaptophysin expression
MAP-2 expression (MAP2): strong increase
% inhibition of specific binding [4]: < 25%
